# Results: PubChem BioAssay AID1863 (Southern Research Specialized Biocontainment Screening …, 2009)
# System: S. Typhimurium PhoP-regulated promoter GFP reporter, 4 h
# Experiment: PhoP-dependent GFP reporter repression – Salmonella Typhimurium, primary screen (AID 1863)
row,SMILES,IC50 [µM]
1,CN1CCN(C(c2ccc(Cl)cc2)c2cc(Cl)c3cccnc3c2O)CC1 (stereo not given),44.1
2,CC(=O)NC(c1ccc(C)cc1)c1cc([N+](=O)[O-])c2cccnc2c1O (stereo not given),36.8
3,COc1c(N2CCN(C(=S)NCc3ccccc3)C(C)C2)c(F)cc2c(=O)c(C(=O)O)cn(C3CC3)c12 (stereo not given),43.3
4,CCn1nc(C(=O)O)c(=O)c2cc3c(cc21)OCO3,27.9
5,Nc1ncn([C@@H]2O[C@H](CO)[C@@H](O)[C@H]2O)c(=O)n1,50.4
6,O=C(N/N=C/c1cc(Cl)ccc1O)c1cccnc1,49.3
7,OC(c1cc(C(F)(F)F)nc2c(Cl)cc(Cl)cc12)C1CCCCN1 (stereo not given),101
8,CC[C@H]1OC(=O)[C@H](C)[C@@H](O[C@H]2C[C@@](C)(OC)[C@@H](O)[C@H](C)O2)[C@H](C)[C@@H](O[C@@H]2O[C@H](C)C[C@H](N(C)C)[C@H]2O)[C@](C)(O)C[C@@H](C)CN(C)[C@H](C)[C@@H](O)[C@]1(C)O,2.36
9,C/C(=N\NC(=O)c1cc2ccccc2cc1O)c1ccccn1,38.2
10,CN(C)c1ccc(/C=C/c2ccc3c4ccccc4ccc3[n+]2-c2ccccc2)cc1,21
11,CCN(CC)c1ccc(/C=N/Nc2nc3ccccc3[nH]2)c(O)c1,134
12,O=C(C[n+]1cccc(CNC(=O)c2ccc(OC(F)F)cc2)c1)Nc1ccc(SC(F)F)cc1,94.1
13,COC(=O)C(C)NC(=S)N1CCN(c2c(F)cc3c(=O)c(C(=O)O)cn(C4CC4)c3c2OC)CC1C (stereo not given),75.4
14,CCn1cc(C(=O)O)c(=O)c2cc(F)c(N3CCN(C)CC3)cc21,1
15,O=C(Nc1ccccc1)Nc1ncc([N+](=O)[O-])s1,40.3
16,CC[n+]1c(/C=C/C=C/c2ccc(N(C)C)cc2)sc2ccccc21,69.6
17,CCC(C)NC(=O)c1cn(CC)c2cc(N3CCN(C)CC3)c(F)cc2c1=O (stereo not given),37.2
18,CN(C)C1C(=O)C(C(N)=O)=C(O)C2(O)C(=O)C3=C(O)c4c(O)cccc4C(C)(O)C3CC12 (stereo not given),3.55
19,Cc1conc1NC(c1cccs1)c1ccc2cccnc2c1O (stereo not given),60.9
20,CN1CCN(CCCN2c3ccccc3Sc3ccc(Cl)cc32)CC1,71.2
21,Nc1nc(N2CCN(C/C=C/c3ccccc3)CC2)nc2ccccc12,147
22,O=C(N/N=C\C=C\c1ccc([N+](=O)[O-])o1)c1cccs1,23.5
23,Oc1cccc(/C=N/Nc2ccc(Cl)nn2)c1O,138
24,CCn1cc(C(=O)O)c(=O)c2cc(F)c(N3CCN(C(=S)NC(=O)c4cccc(F)c4)CC3)cc21,18.3
25,CC(C)CCNCC(O)CON=C1c2ccccc2-c2ccccc21 (stereo not given),123
26,CO/N=C(/C(=O)N[C@@H]1C(=O)N2C(C(=O)O)=CCS[C@H]12)c1cnc(N)s1,16
27,C1=C(CCNCc2ccccc2)CCCC1,9.02
28,COc1ccccc1CNCCc1ccc(F)cc1,42.6

row,SMILES,IC50 [µM]
1,CN(C)c1ccc(/C=C/c2ccc3ccccc3[n+]2C)cc1,18.7
2,O=[N+]([O-])c1ccc(-c2ccn[nH]2)o1,38.3
3,C/C(=N\Nc1ncnc2sc(C)c(C)c12)c1ccccn1,73.9
4,CN1CCN(c2cc3c(cc2F)c(=O)c(C(=O)O)cn3CCF)CC1,0.37
5,Oc1c(CN2CCN(c3ccc(F)cc3)CC2)cc(Cl)c2cccnc12,49
6,O=[N+]([O-])c1ccc(N/N=C/c2ccc[nH]2)cc1,75
7,O=C(NC(CO)Cc1ccc([N+](=O)[O-])cc1)C(Cl)Cl (stereo not given),9.97
8,COC1C(OC(=O)c2ccc(C)[nH]2)C(O)C(Oc2ccc3c(O)c(NC(=O)c4ccc(O)c(CC=C(C)C)c4)c(=O)oc3c2Cl)OC1(C)C (stereo not given),11.8
9,O=[N+]([O-])c1cc(Cl)c2cccnc2c1O,3.07
10,Cc1ccnc(NC(c2cccnc2)c2ccc3cccnc3c2O)c1 (stereo not given),57.1
11,Nc1nc(F)nc2c1ncn2[C@@H]1O[C@H](CO)[C@@H](O)[C@H]1O,27.8
12,O=[N+]([O-])c1cc(/C=N/Nc2nc3ccccc3[nH]2)c(O)cc1O,24.3
13,O=C1c2ccccc2NC(c2ccc(-c3cccc(Cl)c3)o2)N1O (stereo not given),114
14,COc1c(N2CCN[C@H](C)C2)c(F)cc2c(=O)c(C(=O)O)cn(C3CC3)c12,0.36
15,Nc1nc2ccccc2n1Cc1ccc(Cl)c(Cl)c1,82.9
16,CCCCCCCCCn1c2c(c(=N)c3c1CCC3)CCC2,37.2
17,O=C(Nc1nc(-c2ccccn2)cs1)c1ccc(Cl)s1,69.3
18,C=C1c2cccc(O)c2C(O)=C2C(=O)[C@]3(O)C(O)=C(C(N)=O)C(=O)[C@@H](N(C)C)[C@@H]3[C@@H](O)[C@H]12,1.41
19,Cc1ccc(C(=O)N/N=C/c2cc(Br)ccc2O)cn1,76.5
20,Cc1ccccc1OCc1n(CC(=O)OC2CC(C)CCC2C(C)C)c2ccccc2[n+]1C (stereo not given),71
21,CCOc1ccc(Nc2c3ccccc3nc3ccccc23)cc1,77.7
22,Clc1ccc(OCCCNCc2ccccc2)c(Br)c1,68.7
23,Cc1ccc(Nc2cc(C)nn2-c2nc(C)cc(=O)[nH]2)cc1,32.4
24,Clc1ccc(C[n+]2cc(-c3ccc(Cl)cc3)n3c2CCC3)cc1,127
25,CCn1cc(C(=O)NCC(C)C)c(=O)c2cc(F)c(N3CCN(C)CC3)cc21,38.2
26,Clc1cc(Br)ccc1OCCCNCc1ccccc1,82.8
27,COc1ccc(C(=O)N/N=C/c2sc3ccccc3c2O)cc1,107
